How the values were obtained:
[1] = biological target: T1, Human neurokinin (NK1) (Homo sapiens, UniProt P25103); assay: Radioligand binding, human neurokinin NK1 membranes, filtration, [125I]-Substance P; conditions: compound at 10 μM; for A8 radioligand binding inhibition: human neurokinin NK1 membranes
T1 construct: purchased Perkin Elmer Biosignal
How it was run: (§1)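 Percent inhibition of radioligand binding measured on recombinant human membranes: NK1 with [125I]-Substance P, KOP with [3H]-Diprenorphine. Incubation 1 h at room temperature, then harvest onto 0.3% PEI-soaked filters, cold Tris-HCl pH 7.4 washes and scintillation counting; non-specific binding from reference ligand wells.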

[2] = biological target: T2, Human Melanocortin (MC3) (Homo sapiens, UniProt P41968); assay: Radioligand binding, human melanocortin MC3 membranes, FlashPlate, [125I]-NDP-αMSH; conditions: compound at 10 μM; for A3 radioligand binding inhibition: human melanocortin MC3 membranes
T2 construct: purchased Perkin Elmer Biosignal
T2 sequence (P41968 whole entry): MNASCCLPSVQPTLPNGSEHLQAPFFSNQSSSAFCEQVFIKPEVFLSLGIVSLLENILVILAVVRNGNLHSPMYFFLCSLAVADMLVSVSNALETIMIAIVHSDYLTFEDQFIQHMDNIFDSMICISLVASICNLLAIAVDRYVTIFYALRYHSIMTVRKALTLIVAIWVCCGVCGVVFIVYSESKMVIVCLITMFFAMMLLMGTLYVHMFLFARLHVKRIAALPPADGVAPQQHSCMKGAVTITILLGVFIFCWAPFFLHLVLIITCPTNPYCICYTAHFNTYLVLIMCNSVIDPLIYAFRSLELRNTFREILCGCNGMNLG
How it was run: (§2)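 Cloned human receptor membranes were coated onto FlashPlate wells and incubated with radioligand and compound (added from a 0.5 mM DMSO daughter plate) for 1 hour at room temperature in the dark. Scintillation counting gave percent inhibition, with DMSO defining total and reference ligand defining non-specific binding.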

[3] = biological target: T3, Mouse urotensin (mUR2) (Mus musculus, UniProt Q8VIH9); assay: Radioligand binding, mouse urotensin mUR2 membranes, FlashPlate, [125I]-Urotensin II; conditions: compound at 10 μM; for A11 radioligand binding inhibition: mouse urotensin mUR2 membranes
T3 construct: purchased Perkin Elmer Biosignal
T3 sequence (Q8VIH9 1-385): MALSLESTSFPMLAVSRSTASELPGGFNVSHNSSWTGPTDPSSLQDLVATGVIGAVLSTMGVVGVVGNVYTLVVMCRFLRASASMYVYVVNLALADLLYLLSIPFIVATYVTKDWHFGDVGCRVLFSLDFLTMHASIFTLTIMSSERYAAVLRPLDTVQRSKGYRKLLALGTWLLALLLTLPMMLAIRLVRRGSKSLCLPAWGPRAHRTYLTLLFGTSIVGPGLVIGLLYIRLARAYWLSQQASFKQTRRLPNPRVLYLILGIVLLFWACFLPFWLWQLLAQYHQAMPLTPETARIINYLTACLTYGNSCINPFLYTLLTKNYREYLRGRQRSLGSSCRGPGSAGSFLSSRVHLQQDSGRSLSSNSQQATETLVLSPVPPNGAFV
How it was run: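 Cloned mouse urotensin (mUR2) receptor membranes from Perkin Elmer Biosignal were immobilized in FlashPlate microplates using a proprietary coating. Each well got 19.5 μl buffer, then 0.5 μl of DMSO, reference ligand, or compound. Adding 5 μl of [125I]-Urotensin II, diluted to 5× final concentration in binding buffer, started binding. Plates were sealed with TopSeal-A and incubated 1 hour at room temperature in the dark. Wells were counted for 30 seconds each on a TopCount after a 60-second delay, and percentage inhibition was calculated.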

[4] = biological target: T4, Human Melanocortin (MC4) (Homo sapiens, UniProt P32245); assay: Radioligand binding, human melanocortin MC4 membranes, FlashPlate, [125I]-NDP-αMSH; conditions: compound at 10 μM; for A4 radioligand binding inhibition: human melanocortin MC4 membranes
T4 construct: purchased Perkin Elmer Biosignal
T4 sequence (P32245 whole entry): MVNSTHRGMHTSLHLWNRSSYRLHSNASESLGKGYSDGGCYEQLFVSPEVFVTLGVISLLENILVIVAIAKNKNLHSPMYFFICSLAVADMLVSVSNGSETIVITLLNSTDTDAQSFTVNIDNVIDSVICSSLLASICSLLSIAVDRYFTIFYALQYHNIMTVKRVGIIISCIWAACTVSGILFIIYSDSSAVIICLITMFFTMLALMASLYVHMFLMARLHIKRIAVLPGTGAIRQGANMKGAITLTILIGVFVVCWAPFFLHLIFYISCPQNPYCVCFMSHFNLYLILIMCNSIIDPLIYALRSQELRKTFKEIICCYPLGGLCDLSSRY
How it was run: as §2

[5] = biological target: T5, Human melanin-concentrating hormone (MCH1) (Homo sapiens, UniProt Q99705); assay: Radioligand binding, human melanin-concentrating hormone MCH1 membranes, FlashPlate, [125I]-S36057; conditions: compound at 10 μM; for A6 radioligand binding inhibition: human MCH1 membranes
T5 construct: purchased Perkin Elmer Biosignal
T5 sequence (Q99705 whole entry): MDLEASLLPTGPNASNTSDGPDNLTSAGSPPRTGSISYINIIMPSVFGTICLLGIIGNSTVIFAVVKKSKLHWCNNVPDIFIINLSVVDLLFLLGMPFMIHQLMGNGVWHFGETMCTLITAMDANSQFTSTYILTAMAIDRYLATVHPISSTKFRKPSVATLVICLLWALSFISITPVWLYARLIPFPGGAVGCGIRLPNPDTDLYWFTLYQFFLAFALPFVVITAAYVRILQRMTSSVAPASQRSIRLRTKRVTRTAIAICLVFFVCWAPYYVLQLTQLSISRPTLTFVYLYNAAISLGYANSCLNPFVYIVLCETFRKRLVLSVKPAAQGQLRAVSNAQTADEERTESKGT
How it was run: as §2

[6] = biological target: T6, Human μ-opioid (MOP) (Homo sapiens, UniProt P35372); assay: Radioligand binding, human μ-opioid (MOP) membranes, FlashPlate, [3H]-Naloxone; conditions: compound at 10 μM; for A7 radioligand binding inhibition: human μ-opioid (MOP) membranes
T6 construct: purchased Perkin Elmer Biosignal
T6 sequence (P35372 whole entry): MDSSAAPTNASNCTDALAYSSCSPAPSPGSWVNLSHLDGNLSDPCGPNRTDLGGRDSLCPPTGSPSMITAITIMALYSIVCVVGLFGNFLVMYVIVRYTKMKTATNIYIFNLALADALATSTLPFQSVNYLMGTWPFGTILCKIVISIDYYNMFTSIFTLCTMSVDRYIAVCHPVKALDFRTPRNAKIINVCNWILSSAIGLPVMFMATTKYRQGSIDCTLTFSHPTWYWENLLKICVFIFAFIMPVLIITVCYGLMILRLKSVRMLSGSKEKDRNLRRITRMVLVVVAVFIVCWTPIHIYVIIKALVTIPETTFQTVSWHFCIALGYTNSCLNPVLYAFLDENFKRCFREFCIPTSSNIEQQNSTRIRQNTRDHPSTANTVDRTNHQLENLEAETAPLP
How it was run: as §2

[7] = biological target: T7, Human opioid (ORL1) (Homo sapiens, UniProt P41146); assay: Radioligand binding, human opioid ORL1 membranes, FlashPlate, [125I]-Nociceptin; conditions: compound at 10 μM; for A10 radioligand binding inhibition: human ORL1 membranes
T7 construct: purchased Perkin Elmer Biosignal
T7 sequence (P41146 whole entry): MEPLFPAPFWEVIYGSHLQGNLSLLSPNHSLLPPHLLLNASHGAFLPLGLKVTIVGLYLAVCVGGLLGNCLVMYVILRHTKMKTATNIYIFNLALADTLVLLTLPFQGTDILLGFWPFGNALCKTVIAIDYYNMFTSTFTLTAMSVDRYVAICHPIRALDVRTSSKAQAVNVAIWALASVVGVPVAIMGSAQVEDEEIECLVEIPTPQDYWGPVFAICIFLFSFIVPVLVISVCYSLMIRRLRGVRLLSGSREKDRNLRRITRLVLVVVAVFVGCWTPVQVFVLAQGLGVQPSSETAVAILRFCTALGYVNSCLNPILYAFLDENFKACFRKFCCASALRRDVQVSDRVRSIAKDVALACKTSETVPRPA
How it was run: as §2

[8] = biological target: T8, Human δ-opioid (DOP) (Homo sapiens, UniProt P41143); assay: Radioligand binding, human δ-opioid (DOP) membranes, FlashPlate, [3H]-Bremazocine; conditions: compound at 10 μM; for A1 radioligand binding inhibition: human δ-opioid (DOP) membranes
T8 construct: purchased Perkin Elmer Biosignal
T8 sequence (P41143 whole entry): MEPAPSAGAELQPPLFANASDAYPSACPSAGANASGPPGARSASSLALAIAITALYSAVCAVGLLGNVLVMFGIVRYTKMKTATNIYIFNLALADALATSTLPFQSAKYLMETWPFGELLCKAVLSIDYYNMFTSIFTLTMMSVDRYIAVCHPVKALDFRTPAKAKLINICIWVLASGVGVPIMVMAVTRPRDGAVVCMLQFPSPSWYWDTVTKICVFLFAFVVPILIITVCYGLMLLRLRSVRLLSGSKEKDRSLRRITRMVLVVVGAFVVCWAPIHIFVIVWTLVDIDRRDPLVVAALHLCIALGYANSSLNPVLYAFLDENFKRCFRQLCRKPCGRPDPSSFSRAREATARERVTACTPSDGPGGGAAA
How it was run: as §2

[9] = biological target: T9, Human κ-Opioid (KOP) (Homo sapiens, UniProt P41145); assay: Radioligand binding, human κ-opioid (KOP) membranes, filtration, [3H]-Diprenorphine; conditions: compound at 10 μM; for A2 radioligand binding inhibition: human κ-opioid (KOP) membranes
T9 construct: purchased Perkin Elmer Biosignal
T9 sequence (P41145 whole entry): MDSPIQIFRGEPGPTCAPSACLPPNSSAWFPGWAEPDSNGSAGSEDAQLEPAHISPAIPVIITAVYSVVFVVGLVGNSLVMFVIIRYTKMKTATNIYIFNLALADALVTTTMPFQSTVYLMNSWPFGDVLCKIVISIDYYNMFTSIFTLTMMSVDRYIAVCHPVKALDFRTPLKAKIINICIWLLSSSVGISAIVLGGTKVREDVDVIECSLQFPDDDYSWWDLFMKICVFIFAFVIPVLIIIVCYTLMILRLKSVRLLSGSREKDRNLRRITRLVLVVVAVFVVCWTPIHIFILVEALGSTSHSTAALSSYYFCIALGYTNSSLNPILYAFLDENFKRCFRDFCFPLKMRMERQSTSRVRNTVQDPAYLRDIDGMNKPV
How it was run: as §1

[10] = biological target: T10, Human neuropeptide Y (NPY-Y1) (Homo sapiens, UniProt P25929); assay: Radioligand binding, human neuropeptide Y NPY-Y1 membranes, FlashPlate, [125I]-PYY; conditions: compound at 10 μM; for A9 radioligand binding inhibition: human NPY-Y1 membranes
T10 construct: purchased Perkin Elmer Biosignal
T10 sequence (P25929 1-384): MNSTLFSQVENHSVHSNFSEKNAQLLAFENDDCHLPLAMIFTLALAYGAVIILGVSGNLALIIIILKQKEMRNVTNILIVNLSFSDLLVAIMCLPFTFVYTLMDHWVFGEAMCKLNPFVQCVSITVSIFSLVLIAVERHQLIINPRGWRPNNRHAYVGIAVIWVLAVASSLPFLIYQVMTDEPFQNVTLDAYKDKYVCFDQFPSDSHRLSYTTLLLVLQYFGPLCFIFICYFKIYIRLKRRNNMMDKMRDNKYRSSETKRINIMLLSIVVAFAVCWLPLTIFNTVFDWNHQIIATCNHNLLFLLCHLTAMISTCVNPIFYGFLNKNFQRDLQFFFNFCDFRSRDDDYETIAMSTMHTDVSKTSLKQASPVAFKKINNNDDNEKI
How it was run: as §2

[11] = biological target: T11, Human melanocortin (MC5) (Homo sapiens, UniProt P33032); assay: Radioligand binding, human melanocortin MC5 membranes, FlashPlate, [125I]-NDP-αMSH; conditions: compound at 10 μM; for A5 radioligand binding inhibition: human melanocortin MC5 membranes
T11 construct: purchased Perkin Elmer Biosignal
T11 sequence (P33032 whole entry): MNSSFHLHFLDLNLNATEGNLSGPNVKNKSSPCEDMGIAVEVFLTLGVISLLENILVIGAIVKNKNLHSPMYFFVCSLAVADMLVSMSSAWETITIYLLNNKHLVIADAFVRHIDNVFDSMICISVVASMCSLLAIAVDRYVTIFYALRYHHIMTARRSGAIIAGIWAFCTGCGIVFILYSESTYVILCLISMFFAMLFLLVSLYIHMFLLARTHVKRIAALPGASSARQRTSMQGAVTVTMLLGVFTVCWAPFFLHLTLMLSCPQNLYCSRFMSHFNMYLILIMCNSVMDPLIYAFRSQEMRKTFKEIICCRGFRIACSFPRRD
How it was run: as §2

T1 sequence (P25103 whole entry): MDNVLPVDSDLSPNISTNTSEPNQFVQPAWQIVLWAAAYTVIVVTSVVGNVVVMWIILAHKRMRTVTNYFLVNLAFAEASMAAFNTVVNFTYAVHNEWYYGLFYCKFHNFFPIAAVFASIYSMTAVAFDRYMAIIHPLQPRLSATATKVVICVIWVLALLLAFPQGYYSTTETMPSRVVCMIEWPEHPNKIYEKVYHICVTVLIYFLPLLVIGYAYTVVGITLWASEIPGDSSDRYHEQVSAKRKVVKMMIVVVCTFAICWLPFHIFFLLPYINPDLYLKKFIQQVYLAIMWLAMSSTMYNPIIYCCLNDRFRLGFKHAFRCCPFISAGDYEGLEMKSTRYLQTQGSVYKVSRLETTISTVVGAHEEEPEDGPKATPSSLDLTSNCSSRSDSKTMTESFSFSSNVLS

Structure (SMILES) | A8 radioligand binding inhibition [1] | A3 radioligand binding inhibition [2] | A11 radioligand binding inhibition [3] | A4 radioligand binding inhibition [4] | A6 radioligand binding inhibition [5] | A7 radioligand binding inhibition [6] | A10 radioligand binding inhibition [7] | A1 radioligand binding inhibition [8] | A2 radioligand binding inhibition [9] | A9 radioligand binding inhibition [10] | A5 radioligand binding inhibition [11] | other results
COC[C@H]1OC(OCc2ccc(Cl)cc2)[C@H](NC(=O)CCCNC(=N)N)[C@@H](OCc2ccc(-c3ccccc3)cc2)[C@@H]1O (stereo partly drawn) [compound 30] | + (“+” indicates greater than 50% inhibition at 10 μM) | + (“+” indicates greater than 50% inhibition at 10 μM) | − (“−” indicates less than 50% inhibition at 10 μM) | + (“+” indicates greater than 50% inhibition at 10 μM) | + (“+” indicates greater than 50% inhibition at 10 μM) | + (“+” indicates greater than 50% inhibition at 10 μM) | − (“−” indicates less than 50% inhibition at 10 μM) | − (“−” indicates less than 50% inhibition at 10 μM) | − (“−” indicates less than 50% inhibition at 10 μM) | − (“−” indicates less than 50% inhibition at 10 μM) | + (“+” indicates greater than 50% inhibition at 10 μM) | –
NCCCC(=O)NC1C(OCc2ccc(Cl)cc2)OC(COCc2ccc(Cl)cc2)C(O)C1OCc1ccc(Cl)cc1 (single isomer, unassigned) [compound 493] | – | – | – | – | – | – | – | – | – | – | – | A8: inhibition of radioligand binding, human neurokinin (NK1) ([1]; [125I]-Substance P): + (“+” indicates greater than 50% inhibition at 10 μM); A3: inhibition of radioligand binding, human melanocortin (MC3) ([2]; [125I]-NDP-αMSH, 10 µM): − (“−” indicates less than 50% inhibition at 10 μM); A11: inhibition of radioligand binding, mouse urotensin (mUR2) ([3]; [125I]-Urotensin II): − (“−” indicates less than 50% inhibition at 10 μM); A4: inhibition of radioligand binding, human melanocortin (MC4) ([4]; [125I]-NDP-αMSH): + (“+” indicates greater than 50% inhibition at 10 μM); A6: inhibition of radioligand binding, human melanin-concentrating hormone (MCH1) ([5]; [125I]-S36057): + (“+” indicates greater than 50% inhibition at 10 μM); A7: inhibition of radioligand binding, human μ-opioid (MOP) ([6]; [3H]-Naloxone): − (“−” indicates less than 50% inhibition at 10 μM); A10: inhibition of radioligand binding, human opioid (ORL1) ([7]; [125I]-Nociceptin): + (“+” indicates greater than 50% inhibition at 10 μM); A1: inhibition of radioligand binding, human δ-opioid (DOP) ([8]; [3H]-Bremazocine): − (“−” indicates less than 50% inhibition at 10 μM); A2: inhibition of radioligand binding, human κ-opioid (KOP) ([9]; [3H]-Diprenorphine): − (“−” indicates less than 50% inhibition at 10 μM); A9: inhibition of radioligand binding, human neuropeptide Y (NPY-Y1) ([10]; [125I]-PYY): − (“−” indicates less than 50% inhibition at 10 μM); A5: inhibition of radioligand binding, human melanocortin (MC5) ([11]; [125I]-NDP-αMSH): + (“+” indicates greater than 50% inhibition at 10 μM)
CO[C@H]1[C@H](O)[C@@H](COCc2ccc(-c3ccccc3)cc2)OC(OCc2ccccc2)[C@@H]1NC(=O)CCCNC(=N)N (stereo partly drawn) [compound 85] | + (“+” indicates greater than 50% inhibition at 10 μM) | + (“+” indicates greater than 50% inhibition at 10 μM) | − (“−” indicates less than 50% inhibition at 10 μM) | + (“+” indicates greater than 50% inhibition at 10 μM) | + (“+” indicates greater than 50% inhibition at 10 μM) | + (“+” indicates greater than 50% inhibition at 10 μM) | + (“+” indicates greater than 50% inhibition at 10 μM) | − (“−” indicates less than 50% inhibition at 10 μM) | − (“−” indicates less than 50% inhibition at 10 μM) | − (“−” indicates less than 50% inhibition at 10 μM) | + (“+” indicates greater than 50% inhibition at 10 μM) | –

Source: patent US20080009418A1, “Selective Inhibitors” (Alchemia LTD., priority 2004, published 2008)
